Measurements taken from patent US20130323279A1, “Human Endogenous Retrovirus Polypeptide Compositions and Methods of Use Thereof” (The J. David Gladstone Institutes, priority 2006, published 2013).

System: PBMC
Experiment: IFN-γ ELISPOT assay of T cell responses to HERV and HIV-1 peptides
Assay type: cell-based, Human
Conditions: a study participant whose PBMC were used for the 51Cr release assay
Protocol: HIV-1 positive volunteers were selected for this study. The study was approved by the local institutional review board and subjects were given written informed consent. Studies were performed on cryopreserved PBMC from various patient timepoints.
ELISPOT analysis was performed as previously described^34. Plates were incubated 15-18 hours at 37° C. Equivalent antigen concentrations were used for HIV and HERV peptide response comparisons. Assays were performed with duplicate wells for each condition, expect where cell recovery from archived samples dictated the use of single wells. Plates were counted with an AID ELISPOT reader (Cell Technology,). Spot totals for duplicate wells were averaged, and all spot numbers were normalized to numbers of IFN-γ spot-forming units (SFU) per 1×10^6PBMC. Spot values from media control wells were subtracted to determine responses to each peptide. Any resulting peptide values <0 following media subtraction were set to 0 for further analysis.

IPVHKAHKKQ [HERV-L IQ10]
response of study participant's PBMC to peptide: responded
